In paper PMC5844530, “Fosmetpantotenate (RE-024), a phosphopantothenate replacement therapy for pantothenate kinase-associated neurodegeneration: Mechanism of action and efficacy in nonclinical models” (PLoS ONE, 2018):
Values joined by “and” are separate entries in the source; they are usually repeats but may differ in a detail not shown here. Equal values may be shown once.

How the values were obtained:
[1] = Pharmacokinetics in whole blood, Sprague-Dawley rats; details: Sprague-Dawley rat, metabolite AUCall/Parent AUCall x 100
Protocol: The whole blood samples (0.5 mL) were collected into syringes that were prefilled with 2.5 mL of ice-cold 0.1% formic acid in acetonitrile. The volume ratio of the whole blood to 0.1% formic acid in acetonitrile was 1/5 (v/v). Samples were frozen (-70°C) until analyzed by LC-MS/MS.
Standard curves and quality control (QC) samples were prepared fresh on the day of analysis by serial dilution of the standard mixture in quenched whole blood (1 part of blood to 5 parts of 0.1% formic acid in acetonitrile) and centrifuged. […] The frozen study samples were thawed in an ice/water bath and centrifuged. Supernatant (50 μL) from standards, QC samples, and study samples was transferred to a 96-well plate and dried completely under nitrogen. The dried residues were reconstituted with 100 μL of 0.1% formic acid in water containing internal standard (5 ng/mL of ^15N/^13C3-RE-024-02) and analyzed by LC-MS/MS.
LC-MS/MS analysis for blood pharmacokinetic samples: Samples were analyzed using an Agilent 1100 binary pump (Agilent Technologies, Santa Clara, CA, USA), connected to an AB Sciex API 6500 mass spectrometer (SCIEX, Framingham, MA, USA). An electrospray ionization source was used, scanning in the positive mode. […] The chromatography column was a Varian Metasil AQ 120–5 C18 column, 5 μm, 50 x 2.00 mm (Part No. A0530050X020) at ambient temperature, with a 0.5 mL/min flow rate and a 20 μL injection volume. Mobile phase (A) consisted of 0.1% formic acid in water; while mobile phase (B) consisted of 0.1% formic acid in acetonitrile:water (9:1, v/v).
Quantitation of in vivo samples: Peak areas were integrated using Analyst software (AB Sciex, Concord, Ontario, Canada). […] Calibration standards (at a minimum 7 per curve) were fit by linear regression with (1/x^2) weighting. QC samples were used (triplicate) at 3 concentrations for all tandem mass spectrometry (MS/MS) runs.
Pharmacokinetic calculations: PK analysis was performed using Phoenix WinNonlin®, Build 6.3.0.395 (Certara, Princeton, NJ, USA) using a non-compartmental model (PO dose = model 200 for extravascular dosing). […] Post-dose concentrations below the limit of quantitation (BLQ) were omitted from calculation.

[2] = Pharmacokinetics in whole blood, CD-1 mice; details: for % Parent AUCAll: CD1 mouse, metabolite AUCall/Parent AUCall x 100; for Whole Blood Conc. of compound 3: CD-1 mice; for concentration at 2 h / concentration at 8 h / concentration at 0.5 h: male, CD-1, mouse, whole blood, po, Whole Blood Conc. of compound 3, CD-1 mice
[3] = Pharmacokinetics in whole blood, cynomolgus monkeys; details: for % Parent AUCAll: Cynomolgus monkey, 300 mg/kg PO, metabolite AUCall/Parent AUCall x 100

COC(=O)[C@H](C)NP(=O)(OCC(C)(C)[C@@H](O)C(=O)NCCC(=O)O)Oc1ccccc1 (stereo partly shown) [Compound 4]
% Parent AUCAll ([1]; 300 mg/kg PO): 2,820%
% Parent AUCAll ([1]; 700 mg/kg PO): 849%
% Parent AUCAll ([2]; 100 mg/kg PO): 3,180%
% Parent AUCAll ([2]; 300 mg/kg PO): 12,600%
% Parent AUCAll ([2]; 700 mg/kg PO): 10,500%
% Parent AUCAll [3]: 301%
concentration at 0.083 h ([3]; cynomolgus monkey, in vivo, po, 300 mg/kg, Concentration of compound 4 in whole blood, cynomolgus monkeys, single oral 300 mg/kg fosmetpantotenate, 0.083 hr, sum of diastereomers, LLOQ 1.30 nM): 13.2 nM
concentration at 2 h ([3]; cynomolgus monkey, in vivo, po, 300 mg/kg, Concentration of compound 4 in whole blood, cynomolgus monkeys, single oral 300 mg/kg fosmetpantotenate, 2 hr, sum of diastereomers, LLOQ 1.30 nM): 5070 nM
concentration at 4 h ([3]; cynomolgus monkey, in vivo, po, 300 mg/kg, Concentration of compound 4 in whole blood, cynomolgus monkeys, single oral 300 mg/kg fosmetpantotenate, 4 hr, sum of diastereomers, LLOQ 1.30 nM): 665 nM
Concentration of compound 4 in whole blood ([3]; cynomolgus monkeys, single oral 300 mg/kg fosmetpantotenate, 0.083 hr, sum of diastereomers, LLOQ 1.30 nM, 300 mg/kg): 8.08 nM
Concentration of compound 4 in whole blood ([3]; cynomolgus monkeys, single oral 300 mg/kg fosmetpantotenate, 2 hr, sum of diastereomers, LLOQ 1.30 nM, 300 mg/kg): 5694.67 nM
Concentration of compound 4 in whole blood ([3]; cynomolgus monkeys, single oral 300 mg/kg fosmetpantotenate, 4 hr, sum of diastereomers, LLOQ 1.30 nM, 300 mg/kg): 600.1 nM

CC1(C)COP(=O)(O)O[C@H]1C(=O)NCCC(=O)O [Compound 3]
% Parent AUCAll ([1]; 300 mg/kg PO): 4,130%
% Parent AUCAll ([1]; 700 mg/kg PO): 209%
% Parent AUCAll ([2]; 100 mg/kg PO): 8,900%
% Parent AUCAll ([2]; 300 mg/kg PO): 18,900%
% Parent AUCAll ([2]; 700 mg/kg PO): 1,990%
Whole Blood Conc. of compound 3 ([2]; single 100 mg/kg RE-024-02 PO, 4 hr, LLOQ 6 ng/mL): BQL
Whole Blood Conc. of compound 3 ([2]; single 100 mg/kg RE-024-02 PO, 4 hr, LLOQ 21.3 nM): BQL
Whole Blood Conc. of compound 3 ([2]; single 700 mg/kg RE-024-02 PO, 0.5 hr, LLOQ 6 ng/mL, 700 mg/kg): 126 ng/mL and 156 ng/mL and 189 ng/mL
Whole Blood Conc. of compound 3 ([2]; single 700 mg/kg RE-024-02 PO, 0.5 hr, LLOQ 21.3 nM, 700 mg/kg): 448.1 nM and 554.8 nM and 672.1 nM
Whole Blood Conc. of compound 3 ([2]; single 700 mg/kg RE-024-02 PO, 2 hr, LLOQ 6 ng/mL, 700 mg/kg): 67.2 ng/mL and 69.6 ng/mL and 72 ng/mL
Whole Blood Conc. of compound 3 ([2]; single 700 mg/kg RE-024-02 PO, 2 hr, LLOQ 21.3 nM, 700 mg/kg): 239 nM and 247.5 nM and 256 nM
concentration at 2 h ([2]; 100 mg/kg, single 100 mg/kg RE-024-02 PO, 2 hr, LLOQ 6 ng/mL): 6.7 ng/mL
concentration at 2 h ([2]; 100 mg/kg, single 100 mg/kg RE-024-02 PO, 2 hr, LLOQ 21.3 nM): 23.7 nM
concentration at 8 h ([2]; 100 mg/kg, single 100 mg/kg RE-024-02 PO, LLOQ 6 ng/mL): 6.1 ng/mL
concentration at 8 h ([2]; 100 mg/kg, single 100 mg/kg RE-024-02 PO, LLOQ 21.3 nM): 21.6 nM
concentration at 8 h ([2]; 300 mg/kg, single 300 mg/kg RE-024-02 PO, LLOQ 6 ng/mL): 7.6 ng/mL
concentration at 8 h ([2]; 300 mg/kg, single 300 mg/kg RE-024-02 PO, LLOQ 21.3 nM): 26.9 nM
concentration at 0.5 h ([2]; 700 mg/kg, single 700 mg/kg RE-024-02 PO, 0.5 hr, LLOQ 6 ng/mL): 162 ng/mL
concentration at 0.5 h ([2]; 700 mg/kg, single 700 mg/kg RE-024-02 PO, 0.5 hr, LLOQ 21.3 nM): 576 nM
concentration at 2 h ([2]; 700 mg/kg, single 700 mg/kg RE-024-02 PO, 2 hr, LLOQ 6 ng/mL): 48.2 ng/mL
concentration at 2 h ([2]; 700 mg/kg, single 700 mg/kg RE-024-02 PO, 2 hr, LLOQ 21.3 nM): 172 nM
% Parent AUCAll [3]: 9%
concentration at 0.25 h ([3]; cynomolgus monkey, whole blood, po, 300 mg/kg, Concentration of compound 3 in whole blood, cynomolgus monkeys, single oral 300 mg/kg fosmetpantotenate, 0.25 hr, LLOQ 2.13 nM): 5.33 nM
concentration at 4 h ([3]; cynomolgus monkey, whole blood, po, 300 mg/kg, Concentration of compound 3 in whole blood, cynomolgus monkeys, single oral 300 mg/kg fosmetpantotenate, 4 hr, LLOQ 2.13 nM): 432 nM
concentration at 8 h ([3]; cynomolgus monkey, whole blood, po, 300 mg/kg, Concentration of compound 3 in whole blood, cynomolgus monkeys, single oral 300 mg/kg fosmetpantotenate, 8 hr, LLOQ 2.13 nM): 619 nM
Concentration of compound 3 in whole blood ([3]; cynomolgus monkeys, single oral 300 mg/kg fosmetpantotenate, 0.25 hr, LLOQ 2.13 nM, 300 mg/kg): 3.41 nM
Concentration of compound 3 in whole blood ([3]; cynomolgus monkeys, single oral 300 mg/kg fosmetpantotenate, 4 hr, LLOQ 2.13 nM, 300 mg/kg): 654.2 nM
Concentration of compound 3 in whole blood ([3]; cynomolgus monkeys, single oral 300 mg/kg fosmetpantotenate, 8 hr, LLOQ 2.13 nM, 300 mg/kg): 508.25 nM
